Assay results taken from ChEMBL document CHEMBL5214952, “Unique iminotetrahydroberberine-corbelled metronidazoles as potential membrane active broad-spectrum antibacterial agents” (Bioorg Med Chem Lett, 2022).
Values after ≈ are worked out from the molar mass of the structure shown. Active and inactive are the calls of the source. The calls are words filed in the database; no cut-off is given here.

Tests used:
Escherichia coli [1] = experiment: Antibacterial activity against Escherichia coli assessed as inhibition of bacterial growth by CLSI based continuous dilution method; format: functional
Acinetobacter baumannii = experiment: Antibacterial activity against Acinetobacter baumannii assessed as inhibition of bacterial growth by CLSI based continuous dilution method; format: functional
Aspergillus fumigatus = experiment: Antifungal activity against Aspergillus fumigatus assessed as inhibition of fungal growth by CLSI based continuous dilution method; format: functional, organism-based
Enterococcus faecalis = experiment: Antibacterial activity against Enterococcus faecalis assessed as inhibition of bacterial growth by CLSI based continuous dilution method; format: functional
Staphylococcus aureus [2] = experiment: Antibacterial activity against Staphylococcus aureus ATCC 29213 assessed as inhibition of bacterial growth by CLSI based continuous dilution method; format: functional
Staphylococcus aureus [3] = experiment: Antibacterial activity against methicillin-resistant Staphylococcus aureus assessed as inhibition of bacterial growth by CLSI based continuous dilution method; format: functional
Pseudomonas aeruginosa [4] = experiment: Antibacterial activity against Pseudomonas aeruginosa assessed as inhibition of bacterial growth by CLSI based continuous dilution method; format: functional
Klebsiella pneumoniae = experiment: Antibacterial activity against Klebsiella pneumoniae assessed as inhibition of bacterial growth by CLSI based continuous dilution method; format: functional
Pseudomonas aeruginosa [5] = experiment: Antibacterial activity against Pseudomonas aeruginosa ATCC 27853 assessed as inhibition of bacterial growth by CLSI based continuous dilution method; format: functional
Escherichia coli [6] = experiment: Antibacterial activity against Escherichia coli ATCC 25922 assessed as inhibition of bacterial growth by CLSI based continuous dilution method; format: functional
Staphylococcus aureus [7] = experiment: Antibacterial activity against Staphylococcus aureus ATCC 25923 assessed as inhibition of bacterial growth by CLSI based continuous dilution method; format: functional
Staphylococcus aureus [8] = experiment: Antibacterial activity against Staphylococcus aureus assessed as inhibition of bacterial growth by CLSI based continuous dilution method; format: functional
Cell membrane [9] = experiment: Disruption of membrane integrity in Pseudomonas aeruginosa assessed as increase in protein leakage by measuring reduction in fluorescence intensity at 0.5 to 8 times MIC incubated for 6 hrs by bradford assay
Cell membrane [10] = experiment: Induction of outer membrane permeabilization in Pseudomonas aeruginosa assessed as increase in NPN uptake by measuring increase in fluorescence intensity at 0.5 to 8 times MIC by NPN-dye based fluorescence analysis; conditions: DDE = dose-dependent effect
[11] = Cytotoxicity against human HepG2 cells assessed as reduction in cell viability; format: toxicity, cell-based
Cell membrane [12] = experiment: Disruption of membrane integrity in Pseudomonas aeruginosa assessed as increase in nucleic acid leakage by measuring fold reduction in optical density at 8 times MIC by absorption spectrometry analysis
Pseudomonas aeruginosa [13] = experiment: Potency index, ratio of Metronidazole MIC to test compound MIC for antibacterial activity against Pseudomonas aeruginosa assessed as inhibition of bacterial growth by CLSI based continuous dilution method; format: functional
Pseudomonas aeruginosa [14] = experiment: Potency index, ratio of Berberine MIC to test compound MIC for antibacterial activity against Pseudomonas aeruginosa assessed as inhibition of bacterial growth by CLSI based continuous dilution method; format: functional
Pseudomonas aeruginosa [15] = experiment: Potency index, ratio of norfloxacin MIC to test compound MIC for antibacterial activity against Pseudomonas aeruginosa assessed as inhibition of bacterial growth by CLSI based continuous dilution method; format: functional
Cell membrane [16] = experiment: Disruption of membrane integrity in Pseudomonas aeruginosa assessed as reduction in intact bacterial cells by measuring reduction in fluorescence intensity at 0.5 to 8 times MIC by calcein-AM dye based assay
Pseudomonas aeruginosa [17] = experiment: Induction of […] membrane potential depolarization in Pseudomonas aeruginosa assessed as fold increase in fluorescence intensity at 8 times MIC by DiSC35 dye based fluorescence assay; format: functional
[18] = Cytotoxicity against human HepG2 cells assessed as cell viability at 1 times MIC relative to control; format: toxicity, cell-based; conditions: read-out: Activity
Cell membrane [19] = experiment: Induction of cell membrane permeabilization in Pseudomonas aeruginosa assessed as increase in number of cells with damaged membranes by measuring increase in red fluorescence at 1 times MIC measured for 10 mins by PI staining based fluorescence analysis
Pseudomonas aeruginosa [20] = experiment: Antibiofilm activity against Pseudomonas aeruginosa assessed as reduction in biofilm viability at 0.5 to 8 times MIC by crystal violet staining based assay; format: functional, organism-based; conditions: DDE = dose-dependent effect
Pseudomonas aeruginosa [21] = experiment: Antibiofilm activity against Pseudomonas aeruginosa assessed as reduction in biofilm viability at 8 times MIC by crystal violet staining based assay relative to control; format: functional
Cell membrane [22] = experiment: Induction of inner membrane permeabilization in Pseudomonas aeruginosa assessed as increase in PI uptake by measuring increase in fluorescence intensity at 0.5 to 8 times MIC by propidium iodide staining based fluorescence analysis; conditions: DDE = dose-dependent effect
Pseudomonas aeruginosa [23] = experiment: Induction of drug resistance in Pseudomonas aeruginosa assessed as reduction in susceptibility measured after 6 passages; format: functional
Pseudomonas aeruginosa [24] = experiment: Induction of drug resistance in Pseudomonas aeruginosa assessed as fold increase in MIC measured after 11 passages; format: functional

SMILES	MIC (Escherichia coli [1]) [µM]	MIC (Acinetobacter baumannii) [µM]	Activity (Aspergillus fumigatus)	MIC (Enterococcus faecalis) [µM]	MIC (Staphylococcus aureus [2]) [µM]	MIC (Staphylococcus aureus [3]) [µM]	MIC (Pseudomonas aeruginosa [4]) [µM]	MIC (Klebsiella pneumoniae) [µM]	MIC (Pseudomonas aeruginosa [5]) [µM]	MIC (Escherichia coli [6]) [µM]	MIC (Staphylococcus aureus [7]) [µM]	MIC (Staphylococcus aureus [8]) [µM]	also measured
CCCCCO/N=C/c1cc(OC)c(OCC(O)Cn2c([N+](=O)[O-])cnc2C)c2c1CC1c3cc4c(cc3CCN1C2)OCO4 (centres undefined)	824 (≈ 512 µg/mL)	206 (≈ 128 µg/mL)	Active	824 (≈ 512 µg/mL)	824 (≈ 512 µg/mL)	824 (≈ 512 µg/mL)	824 (≈ 512 µg/mL)	824 (≈ 512 µg/mL)	824 (≈ 512 µg/mL)	206 (≈ 128 µg/mL)	824 (≈ 512 µg/mL)	824 (≈ 512 µg/mL)	
CO/N=C/c1cc(OC)c(OCC(O)Cn2c([N+](=O)[O-])cnc2C)c2c1CC1c3cc4c(cc3CCN1C2)OCO4 (centres undefined)	905 (≈ 512 µg/mL)	905 (≈ 512 µg/mL)	Active	226 (≈ 128 µg/mL)	905 (≈ 512 µg/mL)	905 (≈ 512 µg/mL)	905 (≈ 512 µg/mL)	905 (≈ 512 µg/mL)	113 (≈ 63.9 µg/mL)	905 (≈ 512 µg/mL)	56 (≈ 31.7 µg/mL)	452 (≈ 256 µg/mL)	
C=CCO/N=C/c1cc(OC)c(OCC(O)Cn2c([N+](=O)[O-])cnc2C)c2c1CC1c3cc4c(cc3CCN1C2)OCO4 (centres undefined)	433 (≈ 256 µg/mL)	216 (≈ 128 µg/mL)	Active	216 (≈ 128 µg/mL)	216 (≈ 128 µg/mL)	54 (≈ 31.9 µg/mL)	216 (≈ 128 µg/mL)	54 (≈ 31.9 µg/mL)	54 (≈ 31.9 µg/mL)	216 (≈ 128 µg/mL)	54 (≈ 31.9 µg/mL)	108 (≈ 63.9 µg/mL)	
COc1cc(/C=N/OCc2ccccc2)c2c(c1OCC(O)Cn1c([N+](=O)[O-])cnc1C)CN1CCc3cc4c(cc3C1C2)OCO4 (centres undefined)	24 (≈ 15.4 µg/mL)	24 (≈ 15.4 µg/mL)	Active	49 (≈ 31.4 µg/mL)	49 (≈ 31.4 µg/mL)	49 (≈ 31.4 µg/mL)	24 (≈ 15.4 µg/mL)	24 (≈ 15.4 µg/mL)	199 (≈ 128 µg/mL)	99 (≈ 63.5 µg/mL)	24 (≈ 15.4 µg/mL)	49 (≈ 31.4 µg/mL)	Activity (Cell membrane [9]): Active; Activity (Cell membrane [10]): Dde; IC50 [11]: > 50 µM; fold change (FC) (Cell membrane [12]): 0.1; Ratio (Pseudomonas aeruginosa [13]): 62; Ratio (Pseudomonas aeruginosa [14]): 63; Ratio (Pseudomonas aeruginosa [15]): 2; Activity (Cell membrane [16]): Active; fold change (FC) (Pseudomonas aeruginosa [17]): 4; viability at 1 times MIC [18]: > 80%; Activity (Cell membrane [19]): Active; Activity (Pseudomonas aeruginosa [20]): Dde; Activity (Pseudomonas aeruginosa [21]): 46.4%; Activity (Cell membrane [22]): Dde
CCO/N=C/c1cc(OC)c(OCC(O)Cn2c([N+](=O)[O-])cnc2C)c2c1CC1c3cc4c(cc3CCN1C2)OCO4 (centres undefined)	883 (≈ 512 µg/mL)	883 (≈ 512 µg/mL)	Active	883 (≈ 512 µg/mL)	883 (≈ 512 µg/mL)	883 (≈ 512 µg/mL)	883 (≈ 512 µg/mL)	883 (≈ 512 µg/mL)	883 (≈ 512 µg/mL)	883 (≈ 512 µg/mL)	883 (≈ 512 µg/mL)	883 (≈ 512 µg/mL)	
CCCCO/N=C/c1cc(OC)c(OCC(O)Cn2c([N+](=O)[O-])cnc2C)c2c1CC1c3cc4c(cc3CCN1C2)OCO4 (centres undefined)	843 (≈ 512 µg/mL)	843 (≈ 512 µg/mL)	Active	843 (≈ 512 µg/mL)	843 (≈ 512 µg/mL)	843 (≈ 512 µg/mL)	843 (≈ 512 µg/mL)	843 (≈ 512 µg/mL)	843 (≈ 512 µg/mL)	843 (≈ 512 µg/mL)	843 (≈ 512 µg/mL)	843 (≈ 512 µg/mL)	
CCn1cc(C(=O)O)c(=O)c2cc(F)c(N3CCNCC3)cc21 [NORFLOXACIN]	50 (≈ 16 µg/mL)	25 (≈ 7.98 µg/mL)		6 (≈ 1.92 µg/mL)	3 (≈ 0.958 µg/mL)	25 (≈ 7.98 µg/mL)	50 (≈ 16 µg/mL)	25 (≈ 7.98 µg/mL)	12 (≈ 3.83 µg/mL)	25 (≈ 7.98 µg/mL)	100 (≈ 31.9 µg/mL)	25 (≈ 7.98 µg/mL)	Activity (Pseudomonas aeruginosa [23]): Active; fold change (FC) (Pseudomonas aeruginosa [24]): 8
